Laboratory results: patent US20250163104A1, “MACROCYCLIC IMMUNOMODULATORS” (priority 2021, published 2025)
Where a SMILES comes first, the peptide text is derived from it. Bridges are numbered along the chain shown (N, C = ends). [ ]: non-standard residue; d: D form. The star is where a group is joined. ξ: configuration not given here. Phe(4-COOH) = N[C@@H](Cc1ccc(C(=O)O)cc1)C(=O)O; Bip = N[C@@H](Cc1ccc(-c2ccccc2)cc1)C(=O)O; Phe(3-Me) = Cc1cccc(C[C@H](N)C(=O)O)c1; Val(3-OH) = CC(C)(O)[C@H](N)C(=O)O; ξW = NC(Cc1c[nH]c2ccccc12)C(=O)O; 3Pal = N[C@@H](Cc1cccnc1)C(=O)O; 4Pal = N[C@@H](Cc1ccncc1)C(=O)O; Cha = N[C@@H](CC1CCCCC1)C(=O)O; Cit = NC(=O)NCCC[C@H](N)C(=O)O; Ile(3ξ) = CCC(C)[C@H](N)C(=O)O; Thr(3ξ) = CC(O)[C@H](N)C(=O)O; Carboxymethyl = O=C(O)C*; Orn = NCCC[C@H](N)C(=O)O; Dab = NCC[C@H](N)C(=O)O; Dap = NC[C@H](N)C(=O)O

Each compound was assayed against T1, human PD-1 / PD-L1-Ig binding on Jurkat cell line over-expressing human PD-1 (Jurkat-PD-1) (Homo sapiens, UniProt Q15116) (assay: Jurkat-PD-1 Cell Binding High-Content Screening Assay (CBA)). Conditions: Jurkat-PD-1 cells, PE-labeled PD-L1-Ig 20 nM final; read-out: Jurkat HPD1_PDL1 IC50.
T1 construct: expressed in transfected cells; host or cells: Jurkat
T1 sequence (Q15116 25-288): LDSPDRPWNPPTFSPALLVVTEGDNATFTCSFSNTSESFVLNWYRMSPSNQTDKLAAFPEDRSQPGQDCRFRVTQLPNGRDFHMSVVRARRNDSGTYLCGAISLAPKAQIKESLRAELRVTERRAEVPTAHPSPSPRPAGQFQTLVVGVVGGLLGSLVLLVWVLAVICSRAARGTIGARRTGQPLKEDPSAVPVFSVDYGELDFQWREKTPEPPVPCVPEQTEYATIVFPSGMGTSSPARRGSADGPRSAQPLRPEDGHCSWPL
Type: cell-based
In short: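 Compounds were preincubated with Jurkat-hPD-1 cells in DMEM plus 10% fetal calf serum for 2 h at 37° C. Phycoerythrin-labeled PD-L1-Ig (20 nM final) was then added for 1 hour. Cells were fixed in 4% paraformaldehyde with Hoechst 33342, and bound fluorescence was quantified by high-content imaging.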
Work on Cc1cccc(C[C@@H]2NC(=O)[C@H](CC(=O)O)NC(=O)[C@H](Cc3ccc(OCC(=O)O)cc3)NC(=O)[C@H](Cc3ccncc3)NC(=O)CSC[C@@H](C(=O)N[C@H](CC(N)=O)C(N)=O)NC(=O)[C@H](CO)NC(=O)[C@H](C(C)(C)O)NC(=O)[C@H](CC3CCCCC3)NC(=O)[C@H](CCN)NC(=O)[C@@H](CC(C)C)NC(=O)[C@H](CCCN)NC(=O)[C@H](Cc3ccc(OCC(=O)O)cc3)NC(=O)[C@H](Cc3ccc(-c4ccccc4)cc3)NC(=O)[C@H](Cc3ccc(C(=O)O)cc3)NC2=O)c1 [Compound 2628] ({CH2CO}-[4Pal]Y(Carboxymethyl)D[Phe(3-Me)][Phe(4-COOH)][Bip]Y(Carboxymethyl)[Orn][dL][Dab][Cha][Val(3-OH)]SC[dN]-NH2; thioether N-14) yielded an IC50 of 20.6 nM.
With CC(C)C[C@@H]1NC(=O)C(Cc2c[nH]c3ccccc23)NC(=O)[C@H](CC(=O)O)NC(=O)[C@H](Cc2ccc(O)cc2)NC(=O)[C@H](Cc2ccccc2)NC(=O)CSC[C@@H](C(=O)N[C@@H](C)C(N)=O)NC(=O)[C@H]([C@@H](C)O)NC(=O)[C@H](C(C)C)NC(=O)[C@H](CC(C)C)NC(=O)[C@H](CC(N)=O)NC(=O)[C@@H](CC(C)C)NC(=O)[C@H](CN)NC(=O)[C@H](C(C)C)NC(=O)[C@H](Cc2ccc(-c3ccccc3)cc2)NC1=O (stereo partly drawn) [Compound 1213] ({CH2CO}-FYD[ξW]L[Bip]V[Dap][dL]NLVTCA-NH2; thioether N-14) the IC50 was 20.8 nM.
CC(C)C[C@H]1NC(=O)[C@H](CCCN)NC(=O)[C@H](CCC(=O)O)NC(=O)[C@H](Cc2ccc(-c3ccccc3)cc2)NC(=O)[C@H](C(C)C)NC(=O)[C@H](Cc2c[nH]c3ccccc23)NC(=O)[C@H](CC(=O)O)NC(=O)[C@H](Cc2ccc(OCC(=O)O)cc2)NC(=O)[C@H](CN)NC(=O)CSC[C@@H](C(=O)N[C@@H](C)C(N)=O)NC(=O)[C@H]([C@@H](C)O)NC(=O)[C@H](C(C)C)NC(=O)[C@H](Cc2cccc3ccccc23)NC(=O)[C@H](CCN)NC1=O [Compound 1474] showed an IC50 of 68.6 nM.
Cc1cccc(C[C@@H]2NC(=O)[C@H](CC(=O)O)NC(=O)[C@H](Cc3ccc(C(=O)O)cc3)NC(=O)[C@H](Cc3ccncc3)NC(=O)CSC[C@@H](C(=O)N[C@@H](CC(N)=O)C(N)=O)NC(=O)[C@H](C(C)O)NC(=O)[C@H](C(C)C)NC(=O)[C@H](CC3CCCCC3)NC(=O)[C@H](CCN)NC(=O)[C@@H](CC(C)C)NC(=O)[C@H](CCCN)NC(=O)[C@H](Cc3ccc(O)cc3)NC(=O)[C@H](Cc3ccc(-c4ccccc4)cc3)NC(=O)[C@H](C(C)C)NC2=O)c1 (stereo partly drawn) [Compound 2288] ({CH2CO}-[4Pal][Phe(4-COOH)]D[Phe(3-Me)]V[Bip]Y[Orn][dL][Dab][Cha]V[Thr(3ξ)]CN-NH2; thioether N-14) showed an IC50 of 14.6 nM.
CC(C)C[C@H]1NC(=O)[C@H](CCCN)NC(=O)[C@H](CCCNC(N)=O)NC(=O)[C@H](Cc2ccc(-c3ccccc3)cc2)NC(=O)[C@H](C(C)C)NC(=O)[C@H](Cc2c[nH]c3ccccc23)NC(=O)[C@H](CC(=O)O)NC(=O)[C@H](Cc2ccc3ncccc3c2)NC(=O)[C@H](CN)NC(=O)CSC[C@@H](C(=O)N[C@@H](C)C(N)=O)NC(=O)[C@H]([C@@H](C)O)NC(=O)[C@H](C(C)C)NC(=O)[C@H](CC2CCCCC2)NC(=O)[C@H](CCN)NC1=O [Compound 2116] gave an IC50 of 8.9 nM.
With CC(C)C[C@@H]1NC(=O)[C@H](CCN)NC(=O)[C@@H](CC(C)C)NC(=O)[C@H](CCN)NC(=O)[C@H](C(C)C)NC(=O)[C@H](Cc2ccc(-c3ccccc3)cc2)NC(=O)[C@H](C(C)C)NC(=O)[C@H](Cc2c[nH]c3ccccc23)NC(=O)[C@H](CC(N)=O)NC(=O)[C@H](Cc2ccc(O)cc2)NC(=O)[C@H](CC(N)=O)NC(=O)CSC[C@@H](C(=O)N[C@@H](C)C(N)=O)NC(=O)[C@H](CO)NC(=O)[C@H](C(C)C)NC1=O [Compound 1080] ({CH2CO}-NYNWV[Bip]V[Dab][dL][Dab]LVSCA-NH2; thioether N-14) the IC50 was 47.1 nM.
Work on Cc1cccc(C[C@@H]2NC(=O)[C@H](CC(=O)O)NC(=O)[C@H](Cc3ccc(C(=O)O)cc3)NC(=O)[C@H](Cc3ccncc3)NC(=O)CSC[C@@H](C(=O)N[C@@H](CC(N)=O)C(N)=O)NC(=O)[C@H](CO)NC(=O)[C@H](C(C)C)NC(=O)[C@H](CC3CCCCC3)NC(=O)[C@H](CCN)NC(=O)[C@@H](CC(C)C)NC(=O)[C@H](CCCN)NC(=O)[C@H](Cc3ccc(O)cc3)NC(=O)[C@H](Cc3ccc(-c4ccccc4)cc3)NC(=O)[C@H](C(C)C)NC2=O)c1 [Compound 2289] ({CH2CO}-[4Pal][Phe(4-COOH)]D[Phe(3-Me)]V[Bip]Y[Orn][dL][Dab][Cha]VSCN-NH2; thioether N-14) yielded an IC50 of 16.4 nM.
CC(C)C[C@H]1NC(=O)[C@H](CCCN)NC(=O)[C@H](CCC(=O)O)NC(=O)[C@H](Cc2ccc(-c3ccccc3)cc2)NC(=O)[C@H](C(C)C)NC(=O)[C@H](Cc2cccc(Cl)c2)NC(=O)[C@H](CC(=O)O)NC(=O)[C@H](Cc2ccc(OCC(=O)O)cc2)NC(=O)[C@H](Cc2ccncc2)NC(=O)CSC[C@@H](C(=O)N[C@@H](C)C(N)=O)NC(=O)[C@H]([C@@H](C)O)NC(=O)[C@H](C(C)C)NC(=O)[C@H](CC2CCCCC2)NC(=O)[C@H](CCN)NC1=O [Compound 1491] gave an IC50 of 22.6 nM.
Cc1cccc(C[C@@H]2NC(=O)[C@H](CC(=O)O)NC(=O)[C@H](Cc3ccc(OCC(=O)O)cc3)NC(=O)[C@H](Cc3ccncc3)NC(=O)CSC[C@@H](C(=O)N[C@@H](CCN)C(N)=O)NC(=O)[C@H](CO)NC(=O)[C@H](C(C)(C)O)NC(=O)[C@H](CC3CCCCC3)NC(=O)[C@H](CCN)NC(=O)[C@@H](CC(C)C)NC(=O)C(C3CCNCC3)NC(=O)[C@H](Cc3ccc(OCC(=O)O)cc3)NC(=O)[C@H](Cc3ccc(-c4ccccc4)cc3)NC(=O)[C@H](Cc3ccc(OCC(=O)O)cc3)NC2=O)c1 (stereo partly drawn) [Compound 2083] was tested, and the IC50 was 912 nM.
Cc1cccc(C[C@@H]2NC(=O)[C@H](CC(=O)O)NC(=O)[C@H](Cc3ccc(OCC(=O)O)cc3)NC(=O)[C@H](Cc3cccnc3)NC(=O)CSC[C@@H](C(N)=O)NC(=O)[C@H]([C@@H](C)O)NC(=O)[C@H](C(C)C)NC(=O)[C@H](CC(C)C)NC(=O)[C@H](CCN)NC(=O)[C@@H](CC(C)C)NC(=O)[C@H](CCCN)NC(=O)[C@H](CCCNC(N)=O)NC(=O)[C@H](Cc3ccc(-c4ccccc4)cc3)NC(=O)[C@H](C(C)C)NC2=O)c1 [Compound 1655] ({CH2CO}-[3Pal]Y(Carboxymethyl)D[Phe(3-Me)]V[Bip][Cit][Orn][dL][Dab]LVTC-NH2; thioether N-14) gave an IC50 of 280 nM.
Work on CC(C)C[C@H]1NC(=O)[C@H](CCCN)NC(=O)[C@H](CCCNC(N)=O)NC(=O)[C@H](Cc2ccc(-c3ccccc3)cc2)NC(=O)[C@H](C(C)C)NC(=O)[C@H](Cc2c[nH]c3ccccc23)NC(=O)[C@H](CC(=O)O)NC(=O)[C@H](Cc2ccc3ccncc3c2)NC(=O)[C@H](CN)NC(=O)CSC[C@@H](C(=O)N[C@@H](C)C(N)=O)NC(=O)[C@H]([C@@H](C)O)NC(=O)[C@H](C(C)C)NC(=O)[C@H](CC2CCCCC2)NC(=O)[C@H](CCN)NC1=O [Compound 2117] yielded an IC50 of 18.7 nM.

Same assay, conditions: read-out: Jurkat HPD1_PDL1 IC50; Jurkat-PD-1 cells, PE-labeled PD-L1-Ig 20 nM final
In the case of CCC(C)[C@@H]1NC(=O)[C@H](Cc2ccc(-c3ccccc3)cc2)NC(=O)[C@H](CC(C)C)NC(=O)[C@H](Cc2c[nH]c3ccccc23)NC(=O)[C@H](CC(=O)O)NC(=O)[C@H](Cc2ccc(OCC(=O)O)cc2)NC(=O)[C@H](Cc2ccncc2)NC(=O)CSC[C@@H](C(=O)N[C@@H](CC(N)=O)C(=O)O)NC(=O)[C@H](CO)NC(=O)[C@H](C(C)C)NC(=O)[C@H](CC(C)C)NC(=O)[C@H](CCN)NC(=O)[C@@H](CC(C)C)NC(=O)[C@H](CCCN)NC1=O (stereo partly drawn) [Compound 2582] ({CH2CO}-[4Pal]Y(Carboxymethyl)DWL[Bip][Ile(3ξ)][Orn][dL][Dab]LVSCN-OH; thioether N-14), the IC50 is reported as 9.8 nM.
